{
  "source": "patent US6037386A",
  "about": "“Composition for inactivating irritants in fluids” (priority 1999, dated 2000)",
  "key": {"[1]": {"test": "Product formed on mixing zinc salts with CHG / gel formation", "type": "physicochemical", "experimental": "The following zinc salts were mixed with CHG for 1 hour and observed for the resulting product."}, "HBV": {"tested_on": "HBV", "test": "Cidal concentration of CHG (1 minute kill), HBV", "type": "cell-based"}, "Staphylococcus aureus": {"tested_on": "Staphylococcus aureus", "test": "CFU in glove fingers inoculated with blood containing Staphylococcus aureus (synergistic activity)", "type": "cell-based", "settings": "2 minutes; CHG 450 μg, ZnO 12.5 mg", "method": "Synergistic Activity of Zinc Oxide and CHX. CHG, ZnO, and a combination thereof was added to each glove finger. Glove fingers were then inoculated with 0.1 mL of blood containing 10^5 CFU Staphylococcus aureusmL. After 2 minutes, 0.9 mL of LTSB was added, and 0.2 mL of the extract were plated to determine colony counts.\nThis experiment was carried out using the method described in Example 14."}, "HIV": {"tested_on": "HIV", "test": "Cidal concentration of CHG (1 minute kill), HIV", "type": "cell-based"}},
  "data": [
    {"molecule": "zinc gluconate", "values": [
      {"measurement": "gel formation (in words)", "setting": "[1]", "value": "forming a gel matrix when mixed with water or alcohol"}
    ]},
    {"molecule": "N=C(NCCCCCCNC(=N)NC(=N)Nc1ccc(Cl)cc1)NC(=N)Nc1ccc(Cl)cc1", "note": "[CHG, chlorhexidine gluconate]", "values": [
      {"measurement": "cidal concentration for HBV (1 minute kill)", "setting": "HBV", "value": "the same as that for Staphylococcus aureus"},
      {"measurement": "CFU/glove finger", "setting": "Staphylococcus aureus", "value": 1420, "unit": "CFU/glove finger"},
      {"measurement": "cidal concentration for HIV (1 minute kill)", "setting": "HIV", "value": "the same as that for Staphylococcus aureus"}
    ]}
  ]
}
